Test results as given in patent US10770169B2, “Method of providing a treatment to a subject based on a dynamic pathway map” (THE REGENTS OF THE UNIVERSITY OF CALIFORNIA, priority 2010, dated 2020).

Test system: panel of 55 breast cancer cell lines
Assay: Cell growth inhibition assay (Cell Titer Glo, 72 h, 9 doses; GI50, TGI, LC50)
Format: cell-based, human
Conditions: value is the negative log10 of mol/L

Question: How did the GI50 (AU565 cell line, censored GI50 values) turn out when `Cc1cc(C(=O)N2CCN(c3cccc(Cl)c3)CC2)n(-c2ccccc2)n1` [XRP44X] was run?
Answer: 6.35

Question: And the GI50 (BT20 cell line, censored GI50 values)?
Answer: 5.29

Question: What about the GI50 (BT474 cell line, censored GI50 values) of the same compound?
Answer: 5.34

Question: What about the GI50 (BT483 cell line, censored GI50 values) of the same compound?
Answer: 4.18

Question: And the GI50 (CAMA1 cell line, censored GI50 values)?
Answer: 6.27

Question: And the GI50 (HCC38 cell line, censored GI50 values)?
Answer: 5.85

Question: And the GI50 (HCC70 cell line, censored GI50 values)?
Answer: 5.98

Question: What about the GI50 (HCC1187 cell line, censored GI50 values) of the same compound?
Answer: 6.23

Question: And the GI50 (HCC1428 cell line, censored GI50 values)?
Answer: 5.85

Question: What about the GI50 (HCC1500 cell line, censored GI50 values) of the same compound?
Answer: 5.74

Question: And the GI50 (HCC1806 cell line, censored GI50 values)?
Answer: 5.92

Question: And the GI50 (HCC1954 cell line, censored GI50 values)?
Answer: 6.30

Question: And the GI50 (HCC2185 cell line, censored GI50 values)?
Answer: 6.63

Question: What about the GI50 (HCC3153 cell line, censored GI50 values) of the same compound?
Answer: 5.95

Question: And the GI50 (LY2 cell line, censored GI50 values)?
Answer: 6.08

Question: What about the GI50 (MCF7 cell line, censored GI50 values) of the same compound?
Answer: 6.40

Question: What about the GI50 (MDAMB134VI cell line, censored GI50 values) of the same compound?
Answer: 6.21

Question: And the GI50 (MDAMB175VII cell line, censored GI50 values)?
Answer: 5.44

Question: What about the GI50 (MDAMB361 cell line, censored GI50 values) of the same compound?
Answer: 6.06

Question: And the GI50 (MDAMB415 cell line, censored GI50 values)?
Answer: 6.30

Question: And the GI50 (MDAMB436 cell line, censored GI50 values)?
Answer: 5.47

Question: What about the GI50 (MDAMB453 cell line, censored GI50 values) of the same compound?
Answer: 6.20

Question: And the GI50 (MDAMB468 cell line, censored GI50 values)?
Answer: 5.93

Question: And the GI50 (SKBR3 cell line, censored GI50 values)?
Answer: 5.58

Question: What about the GI50 (SUM52PE cell line, censored GI50 values) of the same compound?
Answer: 6.06

Question: What about the GI50 (SUM149PT cell line, censored GI50 values) of the same compound?
Answer: 5.63

Question: And the GI50 (SUM159PT cell line, censored GI50 values)?
Answer: 6.16

Question: And the GI50 (SUM1315MO2 cell line, censored GI50 values)?
Answer: 6.11

Question: What about the GI50 (T47D cell line, censored GI50 values) of the same compound?
Answer: 5.29

Question: And the GI50 (UACC812 cell line, censored GI50 values)?
Answer: 6.30

Question: And the GI50 (ZR75B cell line, censored GI50 values)?
Answer: 5.90

Question: And the GI50 (ZR751 cell line, censored GI50 values)?
Answer: 5.90

Question: What about the GI50 (cell line AU565) of the same compound?
Answer: 6.35

Question: What about the GI50 (cell line BT20) of the same compound?
Answer: 5.29

Question: What about the GI50 (cell line BT474) of the same compound?
Answer: 5.34

Question: What about the GI50 (cell line BT483) of the same compound?
Answer: 4.18

Question: And the GI50 (cell line CAMA1)?
Answer: 6.27

Question: And the GI50 (cell line HCC38)?
Answer: 5.85

Question: What about the GI50 (cell line HCC70) of the same compound?
Answer: 5.98

Question: And the GI50 (cell line HCC1187)?
Answer: 6.23

Question: And the GI50 (cell line HCC1419)?
Answer: 3.88

Question: What about the GI50 (cell line HCC1428) of the same compound?
Answer: 5.85

Question: And the GI50 (cell line HCC1500)?
Answer: 5.74

Question: What about the GI50 (cell line HCC1806) of the same compound?
Answer: 5.92

Question: And the GI50 (cell line HCC1937)?
Answer: 3.88

Question: And the GI50 (cell line HCC1954)?
Answer: 6.30

Question: What about the GI50 (cell line HCC2185) of the same compound?
Answer: 6.63

Question: What about the GI50 (cell line HCC3153) of the same compound?
Answer: 5.95

Question: And the GI50 (cell line LY2)?
Answer: 6.08

Question: What about the GI50 (cell line MCF7) of the same compound?
Answer: 6.40

Question: What about the GI50 (cell line MDAMB134V) of the same compound?
Answer: 6.21

Question: What about the GI50 (cell line MDAMB175V) of the same compound?
Answer: 5.44

Question: And the GI50 (cell line MDAMB361)?
Answer: 6.06

Question: What about the GI50 (cell line MDAMB415) of the same compound?
Answer: 6.30

Question: What about the GI50 (cell line MDAMB436) of the same compound?
Answer: 5.47

Question: And the GI50 (cell line MDAMB453)?
Answer: 6.20

Question: And the GI50 (cell line MDAMB468)?
Answer: 5.93

Question: What about the GI50 (cell line SKBR3) of the same compound?
Answer: 5.58

Question: What about the GI50 (cell line SUM52PE) of the same compound?
Answer: 6.06

Question: What about the GI50 (cell line SUM149PT) of the same compound?
Answer: 5.63

Question: What about the GI50 (cell line SUM159PT) of the same compound?
Answer: 6.16

Question: And the GI50 (cell line SUM1315MO)?
Answer: 6.11

Question: And the GI50 (cell line T47D)?
Answer: 5.29

Question: What about the GI50 (cell line UACC812) of the same compound?
Answer: 6.30

Question: And the GI50 (cell line ZR75B)?
Answer: 5.90

Question: What about the GI50 (cell line ZR751) of the same compound?
Answer: 5.90
